Experimental data as given in patent US9642886B2, “Plant based formulation for the prevention and management of metabolic syndrome by its adiponectin enhancing property” (SRM UNIVERSITY, priority 2014, dated 2017).

System: Metabolic Syndrome cases
Assay: Clinical study in Metabolic Syndrome cases
Assay type: in vivo, human
Procedure: The study population consisted of 128 diagnosed Metabolic Syndrome cases (76 Men and 52 Women), aged 52.81±9.68 years at study entry. The cases were diagnosed as per criteria given by WHO for classification and diagnosis of Metabolic Syndrome. After preliminary screening the subjects showing association with 3 or more than 3 above factors were selected. The clinical trial was conducted in three groups— Group-I: 36 cases were treated with Orlistat (120 mg twice a day after each meals). Group-II: 44 cases were treated with Ayurvedic formulation. Group-III: 48 cases were administered Orlistat along with Ayurvedic formulation. […] Lipid profile including triglyceride was estimated by standard laboratory kits. TNF-[…], interleukin-6 was measured by ELISA kit, adiponectin by radioimmunoassay kit. CRP by kit for quantitative nephelometric determination of CRP in human serum or plasma by Turbox/Turbox analyzer and ELISA activity assay kit for Leptin level. Subjects suffering from any other disease known to affect the study parameters were excluded from the series. Upon recruitment all subjects gave informed written consent.

CCCCCCCCCCC[C@@H](C[C@@H]1OC(=O)[C@H]1CCCCCC)OC(=O)[C@H](CC(C)C)NC=O [Conventional drug, Orlistat]
Adiponectin (After 6 months): 10.04 ± 2.84 µg/mL
Apolipo (B) (After 6 months): 156.41 ± 17.11 mg/dL
Diastolic blood pressure (After 6 months): 84.42 ± 1.98 mmHg
Endotheline (After 6 months): 875.42 ± 171.36 pg/mL
Fasting blood glucose (After 6 months): 99.43 ± 4.36 mg/dL
HDL-c (After 6 months): 50.75 ± 3.12 mg/dL
Interleukin-6 (After 6 months): 1.89 ± 0.75 pg/mL
LDL-c (After 6 months): 109.42 ± 8.44 mg/dL
Leptin (After 6 months): 26.44 ± 3.28 µg/L
Postprandial blood glucose (After 6 months): 186.90 ± 17.42 mg/dL
Systolic blood pressure (After 6 months): 126.90 ± 4.06 mmHg
TNF-α (After 6 months): 324.85 ± 57.86 pg/mL
Total cholesterol (After 6 months): 208.91 ± 27.97 mg/dL
Triglycerides (After 6 months): 224.56 ± 37.90 mg/dL
hs CRP (After 6 months): 3.48 ± 0.89 mg/L
Body Mass Index (BMI) (Female, After 3 months): 29.68 ± 2.04
Body Mass Index (BMI) (Female, After 6 months): 28.45 ± 1.68
Body Mass Index (BMI) (Female, Initial): 31.14 ± 1.88
Adiponectin (Initial): 7.82 ± 1.64 µg/mL
Apolipo (B) (Initial): 193.88 ± 31.64 mg/dL
Diastolic blood pressure (Initial): 88.35 ± 2.06 mmHg
Endotheline (Initial): 1139.73 ± 211.54 pg/mL
Fasting blood glucose (Initial): 133.90 ± 8.82 mg/dL
HDL-c (Initial): 43.84 ± 2.42 mg/dL
Interleukin-6 (Initial): 2.35 ± 0.84 pg/mL
LDL-c (Initial): 143.71 ± 9.13 mg/dL
Leptin (Initial): 33.41 ± 4.35 µg/L
Postprandial blood glucose (Initial): 224.81 ± 20.14 mg/dL
Systolic blood pressure (Initial): 137.82 ± 5.15 mmHg
TNF-α (Initial): 579.84 ± 68.36 pg/mL
Total cholesterol (Initial): 243.84 ± 41.52 mg/dL
Triglycerides (Initial): 371.90 ± 43.88 mg/dL
hs CRP (Initial): 5.31 ± 1.04 mg/L
Body Mass Index (BMI) (Male, After 3 months): 28.82 ± 1.90
Body Mass Index (BMI) (Male, After 6 months): 27.16 ± 1.35
Body Mass Index (BMI) (Male, Initial): 30.75 ± 2.17
